Measurements published in patent publication US20100130477A1, “Spirocyclobutyl Piperidine Derivatives” (ASTRAZENECA AB, priority 2008, published 2010).

Target: T1, human Histamine H3 receptor (hH3R) (Homo sapiens, UniProt Q9Y5N1)
T1 construct: expressed in transfected cells; host or cells: CHO cells (Chinese Hamster Ovary); membranes
Assay: GTPγS Binding Assay (antagonist activity, [35S]GTPγS, (R)-α-methyl histamine 30 nM)
Format: biochemical
Conditions: membranes from CHO cells expressing hH3R, 90 minutes at room temperature
Procedure: Guanosine 5′-O-(3-[^35S]thio)triphosphate [GTPγS] Binding Assay
A GTPγS binding assay can be used to investigate antagonist properties of compounds in CHO cells (Chinese Hamster Ovary) transfected with human Histamine H3 receptor (hH3R). Membranes from CHO cells expressing hH3R (10 μg/well) are diluted in GTPγS assay buffer (20 mM Hepes, 10 mM MgCl2, 100 mM NaCl, pH 7.4) and preincubated with saponine (3 μg/ml), GDP (10 μM) and PVT-WGA SPA beads (125 μg/well) (Amersham) for 30 minutes. To determine antagonist activity, (R)-α-methyl histamine (30 nM) is added in 96 well SPA plate with [^35S]GTPγS (0.2 nM) and various concentration of H3R antagonists. The GTPγS binding assay is started with addition of the mixture membrane/saponine/GDP and incubated for 90 minutes at room temperature. The amount of bound [^35S]GTPγS is determined by using the MicroBeta Trilux counter (PerkinElmer). The percentage of [^35S]GTPγS bound in each sample is calculated as a percentage of that bound control sample incubated in absence of H3 antagonist. Duplicate determinations are obtained for each concentration, and the data are analyzed using ExcelFit4 to obtain the IC50.

T1 sequence (Q9Y5N1 whole entry): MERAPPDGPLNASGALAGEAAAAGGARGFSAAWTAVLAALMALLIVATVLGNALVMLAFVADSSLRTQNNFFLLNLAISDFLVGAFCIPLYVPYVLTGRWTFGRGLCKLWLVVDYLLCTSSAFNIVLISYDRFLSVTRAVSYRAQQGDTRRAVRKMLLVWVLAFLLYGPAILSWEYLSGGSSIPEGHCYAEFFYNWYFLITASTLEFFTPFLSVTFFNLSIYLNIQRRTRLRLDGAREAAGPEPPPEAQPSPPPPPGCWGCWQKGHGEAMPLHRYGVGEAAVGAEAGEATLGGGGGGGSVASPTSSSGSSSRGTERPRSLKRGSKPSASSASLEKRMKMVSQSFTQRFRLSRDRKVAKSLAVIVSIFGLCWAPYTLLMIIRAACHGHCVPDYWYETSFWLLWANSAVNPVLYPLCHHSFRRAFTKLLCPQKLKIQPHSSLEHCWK

Compound | IC50 [µM]
O=C(C1CC2(CCN(c3cccnc3)CC2)C1)N1CCN(C2CCC2)CC1 [Example 1, (4-cyclobutylpiperazin-1-yl)(7-(pyridin-3-yl)-7-azaspiro[3.5]nonan-2-yl)methanone] | 0.0178
O=C(C1CC2(CCN(S(=O)(=O)c3ccccc3)CC2)C1)N1CCN(C2CCC2)CC1 [Example 6, (4-cyclobutylpiperazin-1-yl)(7-(phenylsulfonyl)-7-azaspiro[3.5]nonan-2-yl)methanone] | 0.00656
CCc1cnccc1C(=O)N1CCC2(CC1)CC(C(=O)N1CCN(C3CCC3)CC1)C2 [Example 8, (4-cyclobutylpiperazin-1-yl)(7-(3-ethylisonicotinoyl)-7-azaspiro[3.5]nonan-2-yl)methanone] | 0.0229
O=C(c1cnccc1Cl)N1CCC2(CC1)CC(C(=O)N1CCN(C3CCC3)CC1)C2 [Example 10, (7-(4-chloronicotinoyl)-7-azaspiro[3.5]nonan-2-yl)(4-cyclobutylpiperazin-1-yl)methanone] | 0.0296
Cc1ccc(C(=O)N2CCC3(CC2)CC(C(=O)N2CCN(C4CCC4)CC2)C3)cn1 [Example 12, (4-cyclobutylpiperazin-1-yl)(7-(6-methylnicotinoyl)-7-azaspiro[3.5]nonan-2-yl)methanone] | 0.0262
Cc1ccncc1C(=O)N1CCC2(CC1)CC(C(=O)N1CCN(C3CCC3)CC1)C2 [Example 14, (4-cyclobutylpiperazin-1-yl)(7-(4-methylnicotinoyl)-7-azaspiro[3.5]nonan-2-yl)methanone] | 0.0415
O=C(c1ncc(F)cc1F)N1CCC2(CC1)CC(C(=O)N1CCN(C3CCC3)CC1)C2 [Example 16, (4-cyclobutylpiperazin-1-yl)(7-(3,5-difluoropicolinoyl)-7-azaspiro[3.5]nonan-2-yl)methanone] | 0.0804

Now from value to compound:

IC50 [µM] | Compound
0.027 | O=C(C1CC2(CCN(c3ccccn3)CC2)C1)N1CCN(C2CCC2)CC1 [Example 2, (4-cyclobutylpiperazin-1-yl)(7-(pyridin-2-yl)-7-azaspiro[3.5]nonan-2-yl)methanone]
0.0729 | O=C(C1CC2(CCN(c3ccccc3)CC2)C1)N1CCN(C2CCC2)CC1 [Example 3, (4-cyclobutylpiperazin-1-yl)(7-phenyl-7-azaspiro[3.5]nonan-2-yl)methanone]
0.0154 | CC(C)S(=O)(=O)N1CCC2(CC1)CC(C(=O)N1CCN(C3CCC3)CC1)C2 [Example 4, (4-cyclobutylpiperazin-1-yl)(7-(isopropylsulfonyl)-7-azaspiro[3.5]nonan-2-yl)methanone]
0.00729 | CS(=O)(=O)N1CCC2(CC1)CC(C(=O)N1CCN(C3CCC3)CC1)C2 [Example 5, (4-cyclobutylpiperazin-1-yl)(7-(methylsulfonyl)-7-azaspiro[3.5]nonan-2-yl)methanone]
0.0529 | O=C(C1CCCCC1)N1CCC2(CC1)CC(C(=O)N1CCN(C3CCC3)CC1)C2 [Example 7, (4-cyclobutylpiperazin-1-yl)(7-(cyclohexanecarbonyl)-7-azaspiro[3.5]nonan-2-yl)methanone]
0.0208 | O=C(c1cncc(Cl)c1)N1CCC2(CC1)CC(C(=O)N1CCN(C3CCC3)CC1)C2 [Example 9, (7-(5-chloronicotinoyl)-7-azaspiro[3.5]nonan-2-yl)(4-cyclobutylpiperazin-1-yl)methanone]
0.0169 | Cc1ccnc(C)c1C(=O)N1CCC2(CC1)CC(C(=O)N1CCN(C3CCC3)CC1)C2 [Example 11, (4-cyclobutylpiperazin-1-yl)(7-(2,4-dimethylnicotinoyl)-7-azaspiro[3.5]nonan-2-yl)methanone]
0.0281 | Cc1ncccc1C(=O)N1CCC2(CC1)CC(C(=O)N1CCN(C3CCC3)CC1)C2 [Example 13, (4-cyclobutylpiperazin-1-yl)(7-(2-methylnicotinoyl)-7-azaspiro[3.5]nonan-2-yl)methanone]
0.0313 | N#Cc1ccc(C(=O)N2CCC3(CC2)CC(C(=O)N2CCN(C4CCC4)CC2)C3)nc1 [Example 15, 6-(2-(4-cyclobutylpiperazine-1-carbonyl)-7-azaspiro[3.5]nonane-7-carbonyl)nicotinonitrile]
